The NIST ThermoML archive (doi:10.1021/je400849a)

Legend:
[1] = 101.33 kPa, Liquid; for mass density: Vibrating tube method
[2] = refractive index (Na D-line) (dimensionless); details: 101.33 kPa, Liquid, Standard Abbe refractometry

CCCCn1cc[n+](CCC#N)c1.O=S(=O)([O-])c1ccccc1 [1-butyl-3-(2-cyanoethyl)-1H-imidazolium benzenesulfonate]
Details | mass density, [1] [kg/m3] | refractive index, [2] | viscosity, [1] [mPa·s]
293.15 K | 1240.3 | – | 4612
298.15 K | 1236.8 | 1.53378 | 2752
303.15 K | 1233.4 | 1.53237 | 1806
308.15 K | 1230.2 | 1.53113 | 1203
313.15 K | 1226.3 | 1.52975 | 792
318.15 K | 1223.7 | 1.52824 | 505
323.15 K | 1220.3 | 1.52684 | 321
328.15 K | 1217.1 | 1.52544 | 214
333.15 K | 1213.5 | 1.52403 | 152
338.15 K | 1210.1 | – | 109
343.15 K | 1207.1 | – | 78
348.15 K | 1204.4 | – | 54
353.15 K | 1201.3 | – | 38

CCCCCCCCCCCCOS(=O)(=O)[O-].CCCCCCCCCCn1cc[n+](CCC#N)c1 [3-(2-cyanoethyl)-1-decylimidazolium dodecylsulfate]
Details | mass density, [1] [kg/m3] | refractive index, [2] | viscosity, [1] [mPa·s]
293.15 K | 1053 | – | –
298.15 K | 1050.4 | 1.47447 | –
303.15 K | 1046.9 | 1.47296 | 16145
308.15 K | 1043.3 | 1.47142 | 10417
313.15 K | 1041.8 | 1.46972 | 6231
318.15 K | 1038.6 | 1.46813 | 3951
323.15 K | 1036.1 | 1.46678 | 2583
328.15 K | 1034.3 | 1.46532 | 1757
333.15 K | 1032.5 | 1.46391 | 1252
338.15 K | 1029.9 | – | 904
343.15 K | 1027.3 | – | 588
348.15 K | 1025.8 | – | 418
353.15 K | 1023.9 | – | 296

CCCCCCCCCCCCOS(=O)(=O)[O-].CCCCn1cc[n+](CCC#N)c1 [1-butyl-3-(2-cyanoethyl)-1H-imidazol-3-ium dodecyl sulfate]
Details | mass density, [1] [kg/m3] | refractive index, [2] | viscosity, [1] [mPa·s]
293.15 K | 1128.9 | – | 13007
298.15 K | 1123.2 | 1.48791 | 7875
303.15 K | 1119.8 | 1.48619 | 4746
308.15 K | 1116.1 | 1.48443 | 2938
313.15 K | 1112.2 | 1.48232 | 1740
318.15 K | 1108.9 | 1.48009 | 1144
323.15 K | 1105 | 1.47842 | 768
328.15 K | 1101.9 | 1.47695 | 485
333.15 K | 1097.7 | 1.47487 | 338
338.15 K | 1093.6 | – | 235
343.15 K | 1089.7 | – | 162
348.15 K | 1086.3 | – | 114
353.15 K | 1082.2 | – | 76

CCCCCCCCCCn1cc[n+](CCC#N)c1.O=C([O-])c1cccc(S(=O)(=O)O)c1 [3-(2-cyanoethyl)-1-decylimidazolium 3-sulfobenzoate]
Details | mass density, [1] [kg/m3] | refractive index, [2] | viscosity, [1] [mPa·s]
293.15 K | 1136.6 | – | –
298.15 K | 1133.5 | 1.51306 | 17650
303.15 K | 1129.9 | 1.51163 | 11449
308.15 K | 1126.3 | 1.50998 | 7159
313.15 K | 1123.2 | 1.50871 | 4606
318.15 K | 1119.8 | 1.50706 | 3028
323.15 K | 1116.2 | 1.50582 | 1977
328.15 K | 1112.7 | 1.5045 | 1431
333.15 K | 1109.5 | 1.50322 | 944
338.15 K | 1105.9 | – | 623
343.15 K | 1102.6 | – | 431
348.15 K | 1099.3 | – | 294
353.15 K | 1095.8 | – | 198
